Series [1] can be described thus: Solubility of the active ingredient in loading buffer systems and in water. In kind it is physicochemical. As to conditions: for solubility in citrate buffer: citric acid (intraliposomal) and citric acid/sodium carbonate pH 7.5-8.0 (extraliposomal). From the text:
NH3, which is present in a reversible equilibrium with ammonium sulphate in the intraliposomal aqueous medium, attempts to migrate out through the liposome membrane and to leave behind an H^+. Sildenafil migrates in the opposite direction into the liposome, takes up the hydrogen ion H^+, becomes more hydrophilic thereby and therefore remains in the […]. In this way, sildenafil can be efficiently loaded into liposomes. This applies in a similar manner also to the sildenafil alternatives tadalafil and vardenafil.

A short description of series [2]: Active loading of DPPC/cholesterol liposomes via H+ gradient; active ingredient and lipid content by rp-HPLC. In kind it is physicochemical. Particulars: two-stage variant; converted from the inclusion rate. Here is the method:
External loading of liposomes with sildenafil by means of H^+ gradient. The best inclusion rates were achieved under the following conditions. The lipids (molar DPPC:cholesterol ratio=55:45; in total 13 to 15 μmol per ml of aqueous phase) were dissolved in ethanol and this solution was injected into 125 mM ammonium sulphate solution. After spontaneous vesicle formation, the remaining, external ammonium sulphate solution was replaced by a 5% glucose solution and sildenafil citrate was added. In this way, an H^+ gradient formed between the inside and outside of the lipid vesicles. pH values below 2.5 are less suitable owing to resultant hydrolysis problems, and pH values greater than 5.5 are also not preferred, owing to the increasingly flat H^+ gradient. An aqueous 125 mM ammonium sulphate solution typically has a pH in the range of about 5-5.5. After removal of sildenafil which has not been included by means of gel filtration, both the active ingredient content and the lipid content were determined by means of rp-HPLC. Liposome size and distribution were determined by means of photon correlation spectroscopy (PCS). […]

Structures can show the parent of a compound that is named as a salt.

Consider `CCCc1nn(C)c2c(=O)[nH]c(-c3cc(S(=O)(=O)N4CCN(C)CC4)ccc3OCC)nc12` [sildenafil citrate], for which, in series [1], the “solubility in citrate buffer” value is on record as “insoluble or scarcely soluble”. Besides, the solubility in water entry in series [1] (water) is on record as “dissolves very readily”.

For the compound `CCCc1nn(C)c2c(=O)[nH]c(-c3cc(S(=O)(=O)N4CCN(C)CC4)ccc3OCC)nc12` [sildenafil], in series [1], the “solubility in citrate buffer” value is “only poorly soluble or not soluble at all”. Moreover, in series [2], the “active ingredient per ml of liposomal suspension” value is recorded as 1000-1500 μg of active ingredient per ml of liposomal suspension.

(Values after US8524274B2, “Liposomal composition comprising an active ingredient for relaxing smooth muscle, the production of this composition and the therapeutic use thereof” (Polymun Scientific Immunbiologische Forschung GmbH, priority 2004, dated 2013).)
